Experimental data published in patent publication US4401594A, “L-Argininal derivatives and a method of manufacturing the same” (Nippon Kayaku Kabushiki Kaisha, priority 1980, dated 1983).
Where a name gives a salt, the structure may show the parent alone. Read-outs that look alike come from different tables or passages of the source. Where a SMILES comes first, the peptide text is derived from it. [ ]: non-standard residue; d: D form. The star is where a group is joined. pGlu = O=C1CC[C@@H](C(=O)O)N1; Cbz = O=C(OCc1ccccc1)*

Experiments:
[1] = target: T1, plasmin (Homo sapiens, UniProt P00747); assay: Determination of Anti-Plasmin Activity; assay type: biochemical; details: fibrinogen substrate, plasminogen from human serum + streptokinase, pH 7.2, 37° C., 20 minutes
T1 construct: fibrinogen substrate
Protocol: The inhibitory activity of the compounds on each protease was determined as follows:
Buffer solution: pH 7.2, 0.01 M phosphate buffer solution.
Substrate: 2 g of fibrinogen (Armour Pharm. Co., U.S.A.) were dissolved in 100 ml of the phosphate buffer solution under heat.
Enzyme: The human serum was mixed with 20 times as much water, and after acetic acid had been added into the mixture to adjust it to pH 5.2, the solution was left at room temperature for half an hour. The precipitates obtained by centrifugation at 3,000 rpm for 10 minutes was dissolved in an equal quantity of the buffer solution to that of the serum, and the resulting solution was subjected to centrigugation at 10,000 rpm for half an hour, whereby a plasminogen solution was obtained as the supernatant. A solution of streptokinase (Varidase, Lederle Lab., U.S.A.) having a concentration of 10,000 U/ml was prepared, and kept in a cold and dark place. Prior to use, it was diluted with the buffer solution into a solution having a concentration of 2,000 U/ml. The enzyme solution was adjusted prior to use so that 0.5 ml thereof might show an absorbance of about 0.4 at 280 nm after 20 minutes of reaction.
Method: 0.5 ml of the plasminogen solution, 0.3 ml of the phosphate buffer solution, 0.1 ml of the streptokinase solution, and 0.1 ml of the test sample or water were placed in a test tube (15 mm×100 mm). After the mixed solution in the test tube had been heated at 37° C. for three minutes, 2.0 ml of the fibrinogen solution were added into the solution in the test tube, and reacted therewith at 37° C. for 20 minutes. When the reaction had been completed, 1.5 ml of a 1.7 M perchloric acid solution were added into the test tube, and its contents were shaken slightly. After the test tube had been stood at room temperature for an hour, its contents were subjected to centrigugation at 3,000 rpm for 10 minutes. The absorbance (a) of the supernatant thus obtained was measured at 280 nm. The absorbance (b) of the controll solution not containing any compound of this invention was also measured.
The inhibition coefficients of the compounds of this invention on each enzyme were calculated from the absorbances (a) and (b) obtained as hereinabove described, in accordance with the following formula: [formula] These inhibition rates were obtained for various concentrations of the compounds according to this invention, and the concentration of a 50% inhibition (IC50) were calculated therefrom.

[2] = tested on: fibrinolytic system; details: cited from earlier work
[3] = tested on: chickens with spontaneous muscular dystrophy; details: Libby et al., Science 1978; cited from earlier work
[4] = read-out: IC50 Plasmin (converted)

T1 sequence (P00779 27-440): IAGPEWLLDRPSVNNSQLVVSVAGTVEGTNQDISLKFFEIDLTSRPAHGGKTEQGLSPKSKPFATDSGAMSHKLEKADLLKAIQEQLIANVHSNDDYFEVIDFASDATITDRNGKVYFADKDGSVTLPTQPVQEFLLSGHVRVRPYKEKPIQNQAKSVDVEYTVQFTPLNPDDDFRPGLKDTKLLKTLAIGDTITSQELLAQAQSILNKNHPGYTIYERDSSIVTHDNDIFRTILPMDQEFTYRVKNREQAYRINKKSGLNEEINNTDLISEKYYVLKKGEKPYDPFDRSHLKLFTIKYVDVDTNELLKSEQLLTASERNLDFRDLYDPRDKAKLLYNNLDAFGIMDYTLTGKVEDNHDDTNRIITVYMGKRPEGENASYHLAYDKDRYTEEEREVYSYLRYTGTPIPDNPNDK
T1 sequence (P00747 97-810): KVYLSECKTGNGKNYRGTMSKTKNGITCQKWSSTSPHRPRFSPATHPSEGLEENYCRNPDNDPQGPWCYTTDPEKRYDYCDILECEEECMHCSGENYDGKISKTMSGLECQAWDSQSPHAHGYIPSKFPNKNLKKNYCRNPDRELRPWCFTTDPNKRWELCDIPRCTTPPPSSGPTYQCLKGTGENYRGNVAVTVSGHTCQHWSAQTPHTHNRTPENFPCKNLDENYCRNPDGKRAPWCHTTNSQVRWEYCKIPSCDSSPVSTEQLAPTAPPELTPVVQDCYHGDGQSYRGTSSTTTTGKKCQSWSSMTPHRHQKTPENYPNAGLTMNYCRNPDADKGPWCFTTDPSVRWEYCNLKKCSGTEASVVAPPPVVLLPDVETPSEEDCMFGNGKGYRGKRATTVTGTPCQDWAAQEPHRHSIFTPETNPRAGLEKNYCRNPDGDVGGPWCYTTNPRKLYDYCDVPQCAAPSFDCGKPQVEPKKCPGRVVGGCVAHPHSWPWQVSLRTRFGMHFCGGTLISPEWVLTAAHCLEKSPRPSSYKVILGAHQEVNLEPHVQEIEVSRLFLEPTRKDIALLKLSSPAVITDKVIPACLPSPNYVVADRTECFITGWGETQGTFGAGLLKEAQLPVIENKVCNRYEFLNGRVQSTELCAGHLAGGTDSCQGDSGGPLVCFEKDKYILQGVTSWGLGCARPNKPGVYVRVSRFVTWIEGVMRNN

| Compound | IC50 [1, 4] [µM] | other results |
| --- | --- | --- |
| CC(C)C[C@H](NC(=O)OCc1ccccc1)C(=O)N[C@H](C=O)CCCNC(=N)N [Compound No. 25, Benzyloxycarbonyl-L-leucyl-L-argininal hydrochloride] | 33.9 |  |
| COc1ccc(C(=O)N[C@@H](CC(C)C)C(=O)N[C@H](C=O)CCCNC(=N)N)cc1 [Compound No. 11, p-Methoxybenzoyl-L-leucyl-L-argininal hydrochloride] | 39.1 |  |
| CCCCCC(=O)N[C@@H](CC(C)C)C(=O)N[C@H](C=O)CCCNC(=N)N [Compound No. 3, n-Hexanoly-L-leucyl-L-argininal hydrochloride] | 16.8 |  |
| CC(C)C[C@H](NC(=O)c1ccco1)C(=O)N[C@H](C=O)CCCNC(=N)N [Compound No. 26, Furan-2-carbonyl-L-leucyl-L-argininal hydrochloride] | 90.3 |  |
| CCCC(=O)N[C@@H](CC(C)C)C(=O)N[C@H](C=O)CCCNC(=N)N [Compound No. 1, n-Butanoyl-L-leucyl-L-argininal hydrochloride] | 37.8 |  |
| CC(C)C[C@H](NC(=O)c1cccc(Cl)c1)C(=O)N[C@H](C=O)CCCNC(=N)N [Compound No. 9, m-Chlorobenzoyl-L-leucyl-L-argininal hydrochloride] | 13.4 |  |
| CC(C)C[C@H](NC(=O)Cc1ccccc1O)C(=O)N[C@H](C=O)CCCNC(=N)N [Compound No. 18, o-Hydroxyphenylacetyl-L-leucyl-L-argininal hydrochloride] | 12.9 |  |
| CC(C)C[C@H](NC(=O)Cc1ccc([N+](=O)[O-])cc1)C(=O)N[C@H](C=O)CCCNC(=N)N [Compound No. 17, p-Nitrophenylacetyl-L-leucyl-L-argininal hydrochloride] | 3.61 |  |
| Cc1ccc(C(=O)N[C@@H](CC(C)C)C(=O)N[C@H](C=O)CCCNC(=N)N)cc1 [Compound No. 10, p-Methylbenzoyl-L-leucyl-L-argininal hydrochloride] | 32.9 |  |
| CC(C)C[C@H](NC(=O)[C@H](Cc1ccccc1)NC(=O)OCc1ccccc1)C(=O)N[C@H](C=O)CCCN=C(N)N [Compound No. 36, N-Benzyloxycarbonyl-L-phenylalanyl-L-leucyl-L-argininal hydrochloride] (Cbz-Phe-Leu-Arg-aldehyde) | 1.24 |  |
| CC(C)C[C@H](NC(=O)Cc1ccccc1)C(=O)N[C@H](C=O)CCCNC(=N)N [Compound No. 15, Phenylacetyl-L-leucyl-L-argininal hydrochloride] | 14.6 |  |
| CCC(CC)C(=O)N[C@@H](CC(C)C)C(=O)N[C@H](C=O)CCCNC(=N)N [Compound No. 2, 2-Ethylbutanoly-L-leucyl-L-argininal hydrochloride] | 81.2 |  |
| Cc1ccc(S(=O)(=O)N[C@@H](CC(C)C)C(=O)N[C@H](C=O)CCCNC(=N)N)cc1 [Compound No. 14, p-Toluenesulfonyl-L-leucyl-L-argininal hydrochloride] | 14.5 |  |
| CC(C)C[C@H](NC(=O)[C@@H](O)[C@@H](Cc1ccccc1)NC(=O)OCc1ccccc1)C(=O)N[C@H](C=O)CCCNC(=N)N [Compound No. 37, N-Benzyloxycarbonyl-(2S,3R)-3-amino-2-hydroxy-4-phenylbutanoyl-L-leucyl-L-argininal hydrochloride] |  | IC50 ([1]; read-out: IC50 Plasmin): 2.4 µM |
| CC(C)C[C@H](NC(=O)C1CCCCC1)C(=O)N[C@H](C=O)CCCNC(=N)N [Compound No. 6, Cyclohexanecarbonyl-L-leucyl-L-argininal hydrochloride] | 56 |  |
| CC(C)C[C@H](NC(=O)Cc1ccccc1[N+](=O)[O-])C(=O)N[C@H](C=O)CCCNC(=N)N [Compound No. 16, o-Nitrophenylacetyl-L-leucyl-L-argininal hydrochloride] | 42.5 |  |
| CC(C)CC(=O)N[C@@H](CC(C)C)C(=O)N[C@H](C=O)CCCNC(=N)N [Compound No. 4, 3-Methylbutanoyl-L-leucyl-L-argininal hydrochloride] | 21.4 |  |
| CC(C)C[C@H](NC(=O)[C@@H]1CCC(=O)N1)C(=O)N[C@H](C=O)CCCNC(=N)N [Compound No. 31, L-Pyroglutamyl-L-leucyl-L-argininal hydrochloride] ([pGlu]-Leu-Arg-aldehyde) | 1.19 |  |
| CC(C)C[C@H](NC(=O)c1ccc([N+](=O)[O-])cc1)C(=O)N[C@H](C=O)CCCNC(=N)N [Compound No. 12, p-Nitrobenzoyl-L-leucyl-L-argininal hydrochloride] | 30.6 |  |
| CC(C)C[C@H](NC(=O)[C@@H]1CCC(=O)N1C(=O)OCc1ccccc1)C(=O)N[C@H](C=O)CCCNC(=N)N [Compound No. 30, N-Benzyloxycarbonyl-L-pyroglutamyl-L-leucyl-L-argininal hydrochloride] | 0.958 |  |
| CC(C)C[C@H](NC(=O)c1ccncc1)C(=O)N[C@H](C=O)CCCNC(=N)N [Compound No. 22, Isonicotinyl-L-leucyl-L-argininal hydrochloride] |  | IC50 ([1]; read-out: IC50 Plasmin): 88.7 µM |
| CC(=O)N[C@@H](CC(C)C)C(=O)N[C@@H](CC(C)C)C(=O)N[C@H](C=O)CCCNC(=N)N [Leupeptin, acetyl or propionyl-L-leucyl-L-leucyl-L-argininal] | 11 | pharmacological action on the fibrinolytic system [2]: a pharmacological action on the fibrinolytic system; inhibition of atrophy of the muscles [3]: inhibits the atrophy of the muscles |
| CCCCCCCCC(=O)N[C@@H](CC(C)C)C(=O)N[C@H](C=O)CCCNC(=N)N [Compound No. 5, n-Nonanoyl-L-leucyl-L-argininal hydrochloride] | 2.68 |  |
| CC(C)C[C@H](NS(=O)(=O)c1ccccc1)C(=O)N[C@H](C=O)CCCNC(=N)N [Compound No. 13, Benzenesulfonyl-L-leucyl-L-argininal hydrochloride] | 23.9 |  |
| CC(C)C[C@H](NS(=O)(=O)c1cccc2ccccc12)C(=O)N[C@H](C=O)CCCNC(=N)N [Compound No. 20, 1-Naphthalenesulfonyl-L-leucyl-L-argininal hydrochloride] | 28.2 |  |
| CC(C)C[C@H](NS(=O)(=O)c1cccc2c(N(C)C)cccc12)C(=O)N[C@H](C=O)CCCNC(=N)N [Compound No. 21, 5-Dimethylamino-1-naphthalenesulfonyl-L-leucyl-L-argininal 2 hydrochloride] | 24.4 |  |
| CC(C)C[C@H](NC(=O)c1ccccc1)C(=O)N[C@H](C=O)CCCNC(=N)N [Compound No. 8, Benzoyl-L-leucyl-L-argininal hydrochloride] | 44.4 |  |
| CC(C)C[C@H](NC(=O)c1cccnc1)C(=O)N[C@H](C=O)CCCNC(=N)N [Compound No. 23, Nicotinyl-L-leucyl-L-argininal hydrochloride] |  | IC50 ([1]; read-out: IC50 Plasmin): 23.9 µM |
| CC(C)C[C@H](NC(=O)C(O)c1ccccc1)C(=O)N[C@H](C=O)CCCNC(=N)N (mixture of isomers) [Compound No. 35, DL-Mandelyl-L-leucyl-L-argininal hydrochloride] | 3.17 |  |
